The values below come from patent publication US7585839B2, “Medical uses of intercellular communication facilitating compounds” (Zealand Pharma A/S, priority 2001, dated 2009).

Test [1] concerns reentry ventricular tachycardia. Put plainly: Ventricular reentry arrhythmias in dogs after coronary artery occlusion. The format is in vivo, dog. The settings on record: after the lowest dose (bolus 0.1 μg/kg; infusion 2 ng/kg/min) i.v.
Procedure: Three dogs were studied in the anesthetized, open chest state to facilitate electrode placement for mapping. α-chloralose was given as a bolus (200 mg/kg) and then a constant infusion at 8 mg/kg/hr (dissolved in polyethylene glycol, MW=200). The femoral vein and artery was cannulated for administration of fluid and drugs and for measurement of ascending aortic pressure, respectively.
The sinus node was clamped and the atrial appendage was paced with a programmable stimulator with constant current outputs at two times diastolic threshold. Pacing rate was ≧200 b/min to control heart rates. […] Late ventricular diastolic threshold was measured during each intervention; the pacing current was four times threshold.
Test sites were chosen along the shaft of 16 pole needles (J. Kassell, Fayetteville, N.C.); each pole completely surrounds the needle shaft to prevent directionality of needle orientation from recording of adjacent Purkinje strands. Six bipolar electrograms (1 mm spacing) were recorded sequentially down the shaft of the needle by amplifying up to 1000 times, filtering from 3-1300 Hz and recording via oscilloscope during atrial pacing. Four intramural electrograms are recorded on each multipolar needle. […] Inter-needle distance measured on epicardium varies over 6-10 mm in dogs weighing 12-16 kg. […]
Test [2] has as its system human osteoblastic cells. Description: Intercellular calcium waves after mechanical stimulation, human osteoblastic cells. It is filed as cell-based. On the procedure:
(§1) Human osteblast cells (hOB): Cells were isolated from human bone marrow obtained by puncture of the posterior iliac spine of healthy volunteers (aged 20-36): 10-15 ml marrow material was collected in 15 ml PBS+Ca,Mg (Life Technologies, Cat.No. 14040) with 100 U/ml Heparin (Sigma, Cat.No. H-3149). The mononuclear fraction of the marrow was isolated on a Lymphoprep gradient (Nycomed Pharma, Cat.No. 1001967), by centrifugation at 2200 rpm for 30 min. After harvesting, the mononuclear fraction was washed once with culture medium and centrifuged at 1800 rpm for 10 min. Subsequently cells were counted and plated in culture medium at 8×10^6 cells/100 mm dish. hOB medium (all reagents obtained from Life Technologies): MEM w/o Phenol Red w/Glutamax (Cat.No. 041-93013) supplemented with 10% heat inactivated fetal calf serum (Cat.No. 10106) and 0.1% Penicillin/Streptomycin (Cat.No. 15140). Medium was changed the following day and the cells were cultured at 37° C. in 5% CO2 with medium change every 7 days. After 3-4 weeks of culture the cells had reached 70% confluence. The medium was then supplemented with 100 nM Dexamethasone (Sigma, Cat.No. D-4902) for 7 days. Cells were then plated for video imaging experiments: a 25 mm #1 glass coverslip was placed in a 35 mm dish (or each well of a 6-well multidish), cells were plated at 2.5×10^5 cells/coverslip and cultured for 2-3 days before use. […]

Test [3] deals with human osteoblastic cells. Put plainly: DDT-induced uncoupling in human osteoblast cells, Lucifer Yellow microinjection. Conditions: after DDT 13 μM 60 minutes; 10^−8 mol/l, 10 minutes; p<0.01. It is filed as cell-based. On the procedure:
as §1, with “osteoblast cells:” for “osteblast cells (hOB):”, “PBS+Ca, Mg” for “PBS+Ca,Mg”, “5%CO2” for “5% CO2”

Test [4] deals with phosphoinositol turnover in neonatal rat cardiomyocytes. Put plainly: Phosphoinositol turnover in primary cardiomyocyte cultures. The format is cell-based. The settings on record: 100 nM + noradrenaline 300 nM. On the procedure: Neonatal Wistar rats (1-2 days old) are used. Hank's calcium- and magnesium-free balanced salt solution, buffered with 10 mM HEPES is used for washing during cell separation procedures. The hearts are excised, the ventricles isolated and the tissue cut into small pieces. The myocardial cells are isolated by stepwise enzymatic degradation with collagenase 0.05%, as described by ^[35]. After repeated rounds of centrifugation and washing, the precipitated cells are resuspended in culture medium M199 with Earle's salt, 10% NCS, penicillin (75 U/mL), and streptomycin (75 U/mL) and pre-plated in a Petri dish for 90 minutes. The non-adherent cells are collected in the culture medium and plated in multidishes at 2.5*10^5 cells/well. The cultures are kept in a water-saturated CO2-incubator at 37° C. The cardiomyocyte cultures are used for analyses after 6-7 days.
Cardiomyocyte cultures are incubated for 48 hours in culture medium containing 4 μCi/mL myo-[2-^3H]inositol to label the inositol phospholipids. On the day of analysis the medium is replaced by a buffer solution containing lithium and incubated at 37° C., as described by Meier et al.^[36]. After at least five minutes this buffer is replaced by the same volume of buffer containing test compound and incubated for exactly 20 minutes. The reaction is stopped by rapid replacement of the buffer by ice cold 4% v/v perchloric acid (PCA) and incubation for at least 20 minutes at 0° C. The PCA-extract is neutralised and the [^3H]inositol phosphates are separated by anion-exchange chromatography using Amprep™ columns containing 100 mg SAX Quaternary amine. The [^3H]inositol mono-phosphates are eluted and radioactivity in the fraction measured by liquid scintillation counting.
Before adding test substances to the cultures, the cells are depleted of glucose and oxygen by incubating them in a N2-atmosphere in glucose-free lithium-buffer for 10 minutes at 37° C. Control cells are incubated likewise only at normal atmospheric conditions and in a buffer containing glucose.

For “Ac-D-Tyr-D-Pro-D-4Hyp-Gly-D-Ala-Gly-NH2 [Compound 2]”, the “inducibility of epicardial reentry VT” value in test [1] is “no longer inducible”. Further, the “average number of cells in the calcium wave” value amounted to 6.2 cells in test [2] (after ATP desensitization, 10^−8 mol/l, 10 minutes, 4.5 cells before) and 2.9 cells in test [2] (medium without glucose, 10^−8 M, 1.4 cells before). For the same substance, in test [3], the “cell-to-cell dye transfer, median number of cells” value is recorded as 8.3 cells. In addition, the “increase in phospho-inositol turnover above the increase effected by noradrenaline alone” value in test [4] (anoxia and glucose deprivation) was “about 70%”. Moreover, in test [4] (control conditions), the “effect on noradrenaline induced increase in phospho-inositol turnover” value is “no further effect”.
